Reference: patent US10329317B2, “Quinoline derivative for use in the treatment and prevention of viral infections” (ABIVAX, priority 2015, dated 2019)
Read-outs that look alike come from different tables or passages of the source.

Legend:
[1] = Solubility compared with Compound 2 (statement only); assay type: physicochemical
HIV-1 strain YU2 = assay: HIV-1 production (p24 ELISA) in infected monocyte derived macrophages; assay type: cell-based
Description: HIV-1 strain YU2 was used to infect monocyte derived-macrophages from three different donors (donors 349, 350 and 351; respectively FIGS. 2A, 2B, and 2C panel) in the presence of increasing concentrations of the (glucuronidated) Compound 1, at 1.5 μM, 10 μM and 30 μM. The viral capsid protein p24 antigen was quantitated using standard ELISA protocol (expressed in pg/mL in y-axis). R-10 corresponds to untreated cells. […] To generate monocyte derived macrophages (MDMs), monocytes were isolated using CD14 microbeads (catalog no. 130-050-201; Miltenyi) and cultured in X-VIVO10 medium (Lonza) supplemented with GM-CSF 1000 U/ml and M-CSF 100 ng/ml for 6 days. Monocytes were seeded at a cell count of 50′000 cells per well in a 96 well plate. After 6 days medium was replaced with X-VIVO10 w/o Cytokines. After 2 days Macrophages were treated with Compound (1) o/n and next day infected with Yu-2 virus for 6 hrs, washed with PBS and cultured in medium containing the compounds for 12 days. Supernatant for p24 Elisa was collected 2 times a week. Cells were treated with 1.5 μM up to 30 μM and p24 antigen levels were monitored in culture supernatant over a 12 day period (R-10 corresponds to untreated cells) (FIG. 2).

[2] = First-in-man PK: compound (1) plasma levels after single oral ascending dose of compound (2); assay type: in vivo, human; details: for AUC(0-t) / AUC(0-inf) / Cmax / half-life / Tmax: male, human, plasma; for AUC(0-t) / AUC(0-inf) / Cmax / half-life: po; for Tmax: read-out: tmax, median
Description: The present document details the pharmacokinetic (PK) results obtained in a first-in-man study with compound (2) consisting in a single oral ascending dose in healthy male subjects. Four (4) dose levels were investigated (50, 100, 150, and 200 mg).
At each dose level, 6 subjects were included and received a single oral dose of compound (2) so that a total of 24 subjects participated to the study and completed it. No study deviation was identified at the time of the PK analysis and thus, all subjects were included in the PK analysis.
In this study, plasma levels of compound (1) were measured.
PK blood sampling was initially defined up to 48 h post-dose.
Blood samples for assessment of compound (1) plasma levels are scheduled at the following time points: • Day 1 pre-dose, 0.33, 0.66, 1.00, 1.50, 2.00, 2.50, 3.00, 4.00, 6.00, 8.00, 10.00, and 12.00 h post-dose; • Day 2 24.00 and 36.00 h post-dose; • Day 3 48.00 h post-dose; • Day 10 240 h post-dose; • Day 24 576 h post-dose; • Day 45 1080 h post-dose.
Plasma concentrations were processed throughout the PK software for PK data generation. The PK parameters were calculated by non-compartmental analysis (NCA), using Phoenix® WinNonlin® (Pharsight Corporation) running on a personal computer.
For the calculation of the PK parameters and characteristics the following rules were applied: • All the plasma concentrations validated provided to the pharmacokineticist were used for the PK analysis. • The actual blood sampling time points related to the preceding administration was used. • At time points in the lag-time between time zero and the first concentration equal or above limit of quantification (LOQ), concentrations below LOQ were set to zero (0). Concentrations below limit of quantification (BLOQ) between 2 concentrations equal or above LOQ were considered as missing data. Trailing concentrations BLOQ were used in calculations. • If pre-dose concentration was missing, it was arbitrary set to zero (0) assuming that expected results would have been BLOQ.
For each subject receiving the active treatment in each cohort, the following PK parameters of compound (1) were to be derived:
Cmax The observed maximum concentration measured in plasma was obtained directly from the concentration-time data.
tmax The time at which Cmax was apparent, identified by inspection of the plasma drug concentration vs. time data by Phoenix® WinNonlin®.
AUC0-t The area under the concentration-time curve from time zero (pre-dose) to the time of last quantifiable concentration was calculated using a linear trapezoidal method.
ke The terminal plasma elimination rate-constant was estimated from log-linear regression analysis of the terminal phase of the plasma concentration-time profile. The number of points included in the terminal phase was determined by visual inspection of the semi-log plots of the plasma concentration-time profiles (at least 3). AUC0-∞ The AUC from time 0 to infinity was calculated as AUC0-∞=AUC0-t+AUCt-∞, where AUC0-t is the area under the concentration-time curve from time zero (pre-dose) to the time of last quantifiable concentration calculated using a […] trapezoidal method and AUCt-∞=Ct/ke, where Ct is the measured concentration at time of the last quantifiable concentration t. The extrapolated part of AUC0-∞ must be <20% for the value to be considered as reliable. t1/2 The apparent terminal elimination half-life was calculated as ln 2/ke, where ke is the elimination rate constant during the terminal phase determined by the log-linear regression obtained on at least the 3 last quantifiable concentrations and using actual blood sampling times. The correlation coefficient for the goodness of the fit of the regression line through the data points must be 0.8500 or higher, for the value to be considered reliable.

What does the source list for O=C(O)[C@H]1O[C@@H](N(c2ccc(OC(F)(F)F)cc2)c2ccc3cccc(Cl)c3n2)[C@H](O)[C@@H](O)[C@@H]1O [Compound 1, N-β-glucuronide of 8-chloro-N-(4-(trifluoromethoxy)phenyl)quinolin-2-amine]?
solubility relative to Compound 2 [1]: more soluble; inhibition at 30 µM (HIV-1 strain YU2; Human immunodeficiency virus 1, Primary macrophage, 288 h, primary macrophages, 30 μM, 12 day period, read-out: inhibition of virus replication (p24 antigen in culture supernatant)): ≤ 60%; toxicity (HIV-1 strain YU2; macrophages, 1.5 μM up to 30 μM): low toxicity; compound (1) plasma concentrations versus parent drug ([2]; after single oral compound (2), regardless of the dose): markedly higher; AUC(0-t) ([2]; 50 mg, 50 mg compound (2) single oral, N=6, read-out: AUC0-t, GM (geometric mean)): 196 µg·h/mL; AUC(0-t) ([2]; 50 mg, 50 mg compound (2) single oral, N=6, read-out: AUC0-t, Mean): 209 µg·h/mL; AUC(0-inf) ([2]; 50 mg, 50 mg compound (2) single oral, N=6, read-out: AUC0-∞, GM (geometric mean)): 198 µg·h/mL; AUC(0-inf) ([2]; 50 mg, 50 mg compound (2) single oral, N=6, read-out: AUC0-∞, Mean): 212 µg·h/mL; Cmax ([2]; 50 mg, 50 mg compound (2) single oral, N=6, read-out: Cmax, GM (geometric mean)): 2.54 µg/mL; Cmax ([2]; 50 mg, 50 mg compound (2) single oral, N=6, read-out: Cmax, Mean): 2.63 µg/mL; half-life ([2]; 50 mg, 50 mg compound (2) single oral, N=6, read-out: t1/2, GM (geometric mean) (converted)): 95.7 h; half-life ([2]; 50 mg, 50 mg compound (2) single oral, N=6, read-out: t1/2, Mean (converted)): 97.3 h; AUC(0-t) ([2]; 100 mg, 100 mg compound (2) single oral, N=6, read-out: AUC0-t, GM (geometric mean)): 468 µg·h/mL; AUC(0-t) ([2]; 100 mg, 100 mg compound (2) single oral, N=6, read-out: AUC0-t, Mean): 499 µg·h/mL; AUC(0-inf) ([2]; 100 mg, 100 mg compound (2) single oral, N=6, read-out: AUC0-∞, GM (geometric mean)): 476 µg·h/mL; AUC(0-inf) ([2]; 100 mg, 100 mg compound (2) single oral, N=6, read-out: AUC0-∞, Mean): 505 µg·h/mL; Cmax ([2]; 100 mg, 100 mg compound (2) single oral, N=6, read-out: Cmax, GM (geometric mean)): 5.4 µg/mL; Cmax ([2]; 100 mg, 100 mg compound (2) single oral, N=6, read-out: Cmax, Mean): 5.72 µg/mL; half-life ([2]; 100 mg, 100 mg compound (2) single oral, N=6, read-out: t1/2, GM (geometric mean) (converted)): 111 h; half-life ([2]; 100 mg, 100 mg compound (2) single oral, N=6, read-out: t1/2, Mean (converted)): 111 h; AUC(0-t) ([2]; 150 mg, 150 mg compound (2) single oral, N=6, read-out: AUC0-t, GM (geometric mean)): 560 µg·h/mL; AUC(0-t) ([2]; 150 mg, 150 mg compound (2) single oral, N=6, read-out: AUC0-t, Mean): 659 µg·h/mL; AUC(0-inf) ([2]; 150 mg, 150 mg compound (2) single oral, N=6, read-out: AUC0-∞, GM (geometric mean)): 563 µg·h/mL; AUC(0-inf) ([2]; 150 mg, 150 mg compound (2) single oral, N=6, read-out: AUC0-∞, Mean): 664 µg·h/mL; Cmax ([2]; 150 mg, 150 mg compound (2) single oral, N=6, read-out: Cmax, GM (geometric mean)): 8.27 µg/mL; Cmax ([2]; 150 mg, 150 mg compound (2) single oral, N=6, read-out: Cmax, Mean): 9.24 µg/mL; half-life ([2]; 150 mg, 150 mg compound (2) single oral, N=6, read-out: t1/2, GM (geometric mean) (converted)): 95.7 h; half-life ([2]; 150 mg, 150 mg compound (2) single oral, N=6, read-out: t1/2, Mean (converted)): 99.2 h; AUC(0-t) ([2]; 200 mg, 200 mg compound (2) single oral, N=6, read-out: AUC0-t, GM (geometric mean)): 436 µg·h/mL; AUC(0-t) ([2]; 200 mg, 200 mg compound (2) single oral, N=6, read-out: AUC0-t, Mean): 559 µg·h/mL; AUC(0-inf) ([2]; 200 mg, 200 mg compound (2) single oral, N=6, read-out: AUC0-∞, GM (geometric mean)): 438 µg·h/mL; AUC(0-inf) ([2]; 200 mg, 200 mg compound (2) single oral, N=6, read-out: AUC0-∞, Mean): 560 µg·h/mL; Cmax ([2]; 200 mg, 200 mg compound (2) single oral, N=6, read-out: Cmax, GM (geometric mean)): 5.9 µg/mL; Cmax ([2]; 200 mg, 200 mg compound (2) single oral, N=6, read-out: Cmax, Mean): 7.91 µg/mL; half-life ([2]; 200 mg, 200 mg compound (2) single oral, N=6, read-out: t1/2, GM (geometric mean) (converted)): 87.8 h; half-life ([2]; 200 mg, 200 mg compound (2) single oral, N=6, read-out: t1/2, Mean (converted)): 89.5 h; half-life ([2]; healthy male subjects, single oral 50 to 200 mg compound (2), read-out: elimination half life (t1/2) (converted)): ~100 h; Tmax ([2]; 50 mg compound (2) single oral, N=6): 4 h; Tmax ([2]; 100 mg compound (2) single oral, N=6): 4 h; Tmax ([2]; 150 mg compound (2) single oral, N=6): 4 h; Tmax ([2]; 200 mg compound (2) single oral, N=6): 6 h; time of first quantifiable compound (1) concentration ([2]; post-dose, 20 subjects out of 24): ~40 min
